# Measured values as given in patent US7482308B2, “Difluoromethanesulfonyl anilide derivatives useful as herbicides” (Bayer CropScience AG, priority 2004, dated 2009).
# Experiments:
# Type in all cases: in vivo
# [1] = tested on: Cyperus serotinus Rottboel; assay: Test for herbicidal effect against paddy field weeds (Test Example 1); conditions: examined 3 weeks after treatment
# Protocol: (§1) Preparation of Formulation of the Active Compound
# (§2) • Carrier: DMF 5 parts by weight • Emulsifier: Benzyloxy polyglycol ether 1 part by weight
# (§3) A formulation of an active compound is obtained as an emulsifiable concentrate by mixing 1 part by weight of the active compound with the above-mentioned amount of the carrier and emulsifier. A prescribed amount of the formulation is diluted with water.
# (§4) In a green house seeds or tubers of Scirpus juncoides Roxburgh, Monochoria vaginalis Presi, annual broad-leaved weeds (Lindemia procumbens Philcox, Rotala indica Koehne, Elatine triandra Schk, Ammannia multiflora Roxb., etc.), Cyperus serotinus Rottboel were inoculated in a 500 cm^2 pot filled with paddy field soil. Then water was poured to a depth of about 2-3 cm. Five days and 13 days after inoculation, a prescribed, diluted solution of the formulation of each active compound, prepared according to the aforementioned preparation method, was applied to the surface of water. After the treatment the water depth of 3 cm was maintained and the herbicidal effect was examined after 3 weeks from the treatment.
# (§5) The herbicidal effect was rated 100% in the case of complete death and as 0% in the case of no herbicidal effect. In case of showing higher than 80% herbicidal effect, it is evaluated as practical as herbicide.
# [2] = tested on: Monochoria vaginalis Presi; assay: as above; conditions: examined 3 weeks after treatment
# Protocol: as §1, §2, §3, §4, §5
# [3] = tested on: Scirpus juncoides Roxburgh; assay: as above; conditions: examined 3 weeks after treatment
# Protocol: as §1, §2, §3, §4, §5
# [4] = tested on: annual broad-leaved weeds; assay: as above; conditions: examined 3 weeks after treatment
# Protocol: as §1, §2, §3, §4, §5
# [5] = tested on: sulfonylurea resistant Lindernia procumbens Philcox (collected in Kazo area, Saitama Pref.); assay: Test for herbicidal effect against sulfonylurea resistant weeds (Test Example 3); conditions: applied at beginning of emergence, examined 3 weeks after treatment
# Text: (§6) In a green house seeds of Scirpus juncoides Roxburgh (collected in Iwamizawa area, Hokkaido), Lindernia procumbens Philcox (collected in Kazo area, Saitama Pref.), Lindernia procumbens Philcox (collected in Higashi-Hiroshima area, Hiroshima Pref.), Elatine triandra Schk (collected in Kazo area, Saitama Pref.), all of which were confirmed as sulfonylurea resistant, were inoculated in a 20 cm^2 cup filled with paddy field soil. Then water was poured to a depth of about 2 to 3 cm. At the beginning of emergence of each weed, a prescribed, diluted solution of the formulation of each active compound prepared in the same manner as the above-mentioned Test Example 1 was applied to the surface of water. After the treatment the water depth of 3 cm was maintained and the herbicidal effect was examined after 3 weeks from the treatment. The evaluation of the herbicidal effect was conducted in the same manner as the above-mentioned Test Example 1. In case of showing higher than 80% herbicidal effect, it is evaluated as practical as herbicide. In consideration of the possibility that the biological properties including herbicide resistance of the plants grown in different areas might be different, sulfonylurea resistant Lindernia procumbens Philcox collected in two different areas were used in the present tests. The study results with the compounds No. 1, 3, 11 and 17 and the comparative compound No. C-1 as specific examples are shown in the following Table 6.
# [6] = tested on: sulfonylurea resistant Scirpus juncoides Roxburgh (collected in Iwamizawa area, Hokkaido); assay: as above; conditions: applied at beginning of emergence, examined 3 weeks after treatment
# Text: as §6
# Cyperus difformis L. = assay: Herbicidal effect against paddy field weeds, spray at two leaf-stage of rice (Test Example 5); conditions: 50 g ai/ha, evaluated 3 weeks after treatment
# Text: (§7) In a greenhouse seeds of Scirpus juncoides Roxburgh, Monochoria vaginalis Presi, Cyperus difformis L., annual broad-leaved weeds (Lindernia procumbens Philcox, Rotala indica Koehne, Elatine triandra Schk, Ammannia multiflora Roxb.) and rice (var.: Nipponbare and RD-23) were inoculated in a 500 cm^2 pot filled with paddy field soil. Then water was poured to a depth of about 0 to about 0.5 cm, to be a wet condition. At two leaf-stage of rice, a prescribed, diluted solution of the formulation of each active compound, prepared in the same manner as the above-mentioned Test Example 1, was sprayed over the pots with plants. At 2 days after the treatment, the water depth of 3 cm was maintained and the herbicidal effect and rice injury was evaluated at 3 weeks and 2 weeks after the treatment, respectively.
# (§8) The herbicidal effect and rice injury were rated 100% in the case of complete death and as 0% in the case of no effect or injury. In case of showing higher than 80% herbicidal effect and less than 20% injury, it is evaluated as practical as rice herbicide.
# [7] = tested on: Monochoria vaginalis Presi; assay: as above; conditions: 50 g ai/ha, evaluated 3 weeks after treatment
# Text: as §7, §8
# [8] = tested on: Scirpus juncoides Roxburgh; assay: as above; conditions: 50 g ai/ha, evaluated 3 weeks after treatment
# Text: as §7, §8
# [9] = tested on: annual broad-leaved weeds; assay: as above; conditions: 50 g ai/ha, evaluated 3 weeks after treatment
# Text: as §7, §8
# [10] = tested on: direct-seedling rice var. Nipponbare; assay: Test for phytotoxicity to direct-seedling rice (Test Example 5); conditions: 50 g ai/ha; spray at two leaf-stage of rice; evaluated 2 weeks after treatment
# Text: as §7, §8
# [11] = tested on: direct-seedling rice var. RD-23; assay: as above; conditions: 50 g ai/ha; spray at two leaf-stage of rice; evaluated 2 weeks after treatment
# Text: as §7, §8
# [12] = tested on: Monochoria vaginalis Presi; assay: Test for residual effectiveness against paddy field weeds (Test Example 2); conditions: 60 g ai/ha; period of maintaining herbicidal effect of higher than 80%
# Text: (§9) In a green house a 1000 cm^2 pot was filled with paddy field soil and water was poured to a depth of about 2 to 3 cm. A prescribed, diluted solution of the above-mentioned Test Example 1, was applied to the surface of water. After the prescribed time after the treatment (just after treatment, 1 week, 2 weeks, 3 weeks, 4 weeks, 5 weeks, 6 weeks and 7 weeks after treatment), seeds or tubers of the weeds to be tested Scirpus juncoides Roxburgh, Monochoria vaginalis Presi, annual broad-leaved weeds (Lindernia procumbens Philcox, Rotala indica Koehne, Elatine triandra Schk, Ammannia multiflora Roxb., etc.), Cyperus serotinus Rottboel and Sagittaria pygmaea Miq. were inoculated. Three weeks after the inoculation each herbicidal effect was examined.
# (§10) The evaluation of the residual effectiveness was shown as the period (number of weeks) of maintaining herbicidal effect of higher than 80%, after the evaluation of herbicidal effect had been conducted in the similar manner as the above-mentioned Test Example 1.
# Sagittaria pygmaea Miq. = assay: as above; conditions: 60 g ai/ha; period of maintaining herbicidal effect of higher than 80%
# Text: as §9, §10
# [13] = tested on: Scirpus juncoides Roxburgh; assay: as above; conditions: 60 g ai/ha; period of maintaining herbicidal effect of higher than 80%
# Text: as §9, §10
# [14] = tested on: annual broad-leaved weeds; assay: as above; conditions: 60 g ai/ha; period of maintaining herbicidal effect of higher than 80%
# Text: as §9, §10
# [15] = tested on: transplanted rice (var. Nipponbare); assay: Test for phytotoxicity to transplanted rice (Test Example 4); conditions: 60 g ai/ha, application 5 days after transplanting, examined 2 weeks after treatment; for phytotoxicity to transplanted rice depth 0 cm: planting depth 0 cm; for phytotoxicity to transplanted rice depth 0.5 cm: planting depth 0.5 cm; for phytotoxicity to transplanted rice depth 2 cm: planting depth 2 cm
# Protocol: The phytotoxicity to transplanted rice was evaluated under the conditions with more shallow planting depths than usual depth of 2 cm, simulating the severe condition for herbicides to cause rice injury in the paddy. In a greenhouse 2 to 2.5 leaf-stage of rice (var. Nipponbare) was transplanted at three different depths, in a 1000 cm^2 pot filled with paddy field soil. Then water was poured to a depth of about 2 to about 3 cm. Five days after transplanting, a prescribed, diluted solution of the formulation of each active compound, prepared in the same manner as the above-mentioned Test Example 1, was applied to the surface of water. After the treatment the water depth of 3 cm was maintained and the rice injury was examined after 2 weeks from the treatment. The rice injury was rated 100% in the case of complete death and as 0% in the case of no injury. In case of showing less than 20% injury, it is evaluated as practical as rice herbicide.
# [16] = 30 g ai/ha, application 5 days after inoculation
# [17] = 30 g ai/ha, application 13 days after inoculation
# [18] = 60 g ai/ha, application 5 days after inoculation
# [19] = 60 g ai/ha, application 13 days after inoculation
SMILES,"herbicidal effect Cyperus serotinus [1, 16] [%]","herbicidal effect Cyperus serotinus [1, 17] [%]","herbicidal effect Monochoria vaginalis [2, 16] [%]","herbicidal effect Monochoria vaginalis [2, 17] [%]","herbicidal effect Scirpus juncoides [3, 16] [%]","herbicidal effect Scirpus juncoides [3, 17] [%]","herbicidal effect broad-leaved weeds [4, 16] [%]","herbicidal effect broad-leaved weeds [4, 17] [%]","herbicidal effect against sulfonylurea resistant weeds Lindernia procumbens (collected in Kazo area, Saitama Pref.) ([5]; 30 g ai/ha) [%]","herbicidal effect against sulfonylurea resistant weeds Lindernia procumbens (collected in Kazo area, Saitama Pref.) ([5]; 60 g ai/ha) [%]","herbicidal effect against sulfonylurea resistant weeds Scirpus juncoides (collected in Iwamizawa area, Hokkaido) ([6]; 30 g ai/ha) [%]","herbicidal effect against sulfonylurea resistant weeds Scirpus juncoides (collected in Iwamizawa area, Hokkaido) ([6]; 60 g ai/ha) [%]",herbicidal effect Cyperus difformis L. (Cyperus difformis L.) [%],herbicidal effect Monochoria vaginalis [7] [%],herbicidal effect Scirpus juncoides [8] [%],herbicidal effect broad-leaved weeds [9] [%],Phytotoxicity to direct-seedling rice Nipponbare [10] [%],Phytotoxicity to direct-seedling rice RD-23 [11] [%],period showing sufficient residual herbicidal effectiveness Monochoria vaginalis [12] [week],period showing sufficient residual herbicidal effectiveness Sagittaria pygmaea (Sagittaria pygmaea Miq.) [week],also measured
"COc1cc(OC)nc(C(O)c2cccc(Cl)c2NS(=O)(=O)C(F)F)n1 (centres unmarked) [Compound 3, 2-chloro-6-[(4,6-dimethoxypyrimidin-2-yl)hydroxymethyl]-N-difluoromethanesulfonanilide]",100,100,100,100,100,100,100,100,100,100,100,100,100,100,100,100,20,10,,,
"COc1cc(OC)nc(Cc2cccc(Cl)c2NS(=O)(=O)C(F)F)n1 [Compound 11, 2-chloro-6-[(4,6-dimethoxypyrimidin-2-yl)methyl]-N-difluoromethanesulfonanilide]",,,,,,,,,100,100,100,100,100,100,90,100,10,10,3,4,"herbicidal effect Cyperus serotinus [1, 18]: 100%; herbicidal effect Cyperus serotinus [1, 19]: 95%; herbicidal effect Monochoria vaginalis [2, 18]: 100%; herbicidal effect Monochoria vaginalis [2, 19]: 100%; herbicidal effect Scirpus juncoides [3, 18]: 100%; herbicidal effect Scirpus juncoides [3, 19]: 100%; herbicidal effect broad-leaved weeds [4, 18]: 100%; herbicidal effect broad-leaved weeds [4, 19]: 100%; period showing sufficient residual herbicidal effectiveness Scirpus juncoides [13]: 4 week; period showing sufficient residual herbicidal effectiveness broad-leaved weeds [14]: 4 week; phytotoxicity to transplanted rice depth 0 cm [15]: 15%; phytotoxicity to transplanted rice depth 0.5 cm [15]: 15%; phytotoxicity to transplanted rice depth 2 cm [15]: 10%"
"COc1cc(OC)nc(C(=O)c2cccc(F)c2NS(=O)(=O)C(F)F)n1 [Compound 17, 2-fluoro-6-[(4,6-dimethoxypyrimidin-2-yl)carbonyl]-N-difluoromethanesulfonanilide]",100,100,100,100,100,100,100,100,95,100,100,100,,,,,,,,,
"COCc1cccc(C(O)c2nc(OC)cc(OC)n2)c1NS(=O)(=O)C(F)F (centres unmarked) [Compound C-2, reference compound]",,,,,,,,,,,,,100,100,90,100,50,30,2,3,period showing sufficient residual herbicidal effectiveness Scirpus juncoides [13]: 2 week; period showing sufficient residual herbicidal effectiveness broad-leaved weeds [14]: 2 week; phytotoxicity to transplanted rice depth 0 cm [15]: 40%; phytotoxicity to transplanted rice depth 0.5 cm [15]: 30%; phytotoxicity to transplanted rice depth 2 cm [15]: 30%
